Key:
[1] = tested on: ZIKV production from SNB-19 cells; experiment: Infectious ZIKV production from SNB-19 cells, focus-forming unit assay on Vero cells; assay type: cell-based, Zika virus
Description: FIGS. 2A-1, 2A-2, 2B-1, 2B-2, 2C-1, 2C-2, 2D-1, 2D-2, 2D-3, 2E-1, 2E-2, and 2F. […] Screening of select compounds for antiviral activity against ZIKV infection was carried out. Glioblastoma SNB-19 cells were treated with indicated compound at 10×AC50 (determined in the primary caspase screen) for 1 hour prior to inoculation with FSS-13025 (at MOI=1). Cells were harvested 24 hours post infection and analyzed by Western blot for ZIKV-NS1 or GAPDH (FIGS. 2A-1 and 2A-2). Titration of PHA-690509 on glioblastoma cells for anti-ZIKV activity. Three strains of virus (FSS-13025, PRVABC59, and MR766; MOI=1) were tested. Shown are sample western blot images (FIG. 2B-1) and ImageJ quantification (FIG. 2B-2). Values represent mean±s.d. (n=3; ***P<0.001; One-way ANOVA). Titration of Emricasan on SNB-19 cells for anti-ZIKV activity was conducted similarly (FIGS. 2C-1 and 2C-2). Values represent mean±s.d. […] Sample western blot (FIG. 2D-2) and ImageJ quantification (FIG. 2D-3) are shown for infection with the PRVABC59 strain (MOI=1). Results for additional strains are shown in FIGS. 6A-F. Values represent mean±s.d. […] The concentration of NS1 in the medium of infected SNB-19 cells collected 24 hours post-infection was quantified by a ZIKV-NS1 ELISA kit (FIGS. 2E-1 and 2E-2). […] Cell culture supernatant was collected 24 hours after infection, and infectious virions were quantified for focus-forming units (FFU) using Vero cells. […] Curves represent best fits for calculating IC50 values, and the insets report the calculated IC50 value for each compound.
FIGS. 18A, 18B, 18C-1, 18C-2, 18D, 18E, 18F, 18G-1, and 18G-2. […] 24 hours post infection, supernatants from SNB-19 cells were titrated onto naïve vero cells plated in a monolayer in 96-well plates for infectious focus-forming unit assay as previously described and focus forming units quantified. […] Immunofluorescence (IF) staining (FIG. 18C-1) and quantification (FIG. 18C-2) of ZIKV positive SNB-19 cells following infection with one of three ZIKV strains and treatment with emetine at 0.01, 0.1, or 1 μM. […]
FIG. 21. […] IC50's calculated using graphpad PRISM software. […]

[2] = oral, BID, ×4 days, cited from earlier work
HEK293 cells = experiment: Toxicity IC50 (cell-killing activity) of the NS1 TR-FRET screen; assay type: cell-based, human; settings: cell-killing activity

O=C(Nc1ccc([N+](=O)[O-])cc1Cl)c1cc(Cl)ccc1O [Niclosamide]
potency on inhibition of ZIKV replication [1]: submicromolar range

C[C@H](NC(=O)C(=O)Nc1ccccc1C(C)(C)C)C(=O)N[C@@H](CC(=O)O)C(=O)COc1c(F)c(F)cc(F)c1F [Emricasan]
maximum (Cmax) concentration in human blood [2]: 2360 ng/mL
Cmax ([2]; read-out: maximum (Cmax) concentration in human blood, value in brackets): 4.15 µM

CC[C@H]1CN2CCc3cc(OC)c(OC)cc3[C@@H]2C[C@@H]1C[C@H]1NCCc2cc(OC)c(OC)cc21 [Emetine]
IC50 ([1]; Zika virus, SNB-19 cells, each of three ZIKV strains, read-out: IC50 of infectious ZIKV production): ≤ 10 nM
Tox IC50 (HEK293 cells): No

From patent US10940188B2, “Compounds and methods for treatment and prevention of Flavivirus infection” (priority 2016, dated 2021)
